Like-named read-outs stand apart in the source and are kept apart here.
What was measured:
[1] = target: BRD4 (Homo sapiens, UniProt O60885); assay: Live cell kinetic HiBiT degradation assay, HiBiT-BRD4 HEK293 cells (parental, CRBN KO, VHL KO); type: cell-based; settings: for EC50: HiBiT-BRD4 CRISPR knock-in HEK293 cells, live cell kinetic degradation, 24 h, read-out: Dmax 50 BRD4; for λmax BRD4 (degradation rate): HiBiT-BRD4 knock-in HEK293 cells; for fold increase in degradation of BRD4 (Dmax 50) vs matched pair: 23 vs 1, 26 vs 23, 30 vs 2, HiBiT-BRD4 HEK293 cells
How it was run: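 Endogenous N-terminal HiBiT-BRD4 HEK293 cells stably expressing LgBiT (parental, CRBN KO, VHL KO) in CO2-independent medium with Endurazine, pre-equilibrated 3 h at 37 °C. Luminescence read every 7 min for 24 h after PROTAC addition (threefold series), normalized to pre-read and DMSO. Dmax = lowest reading; rate from one-phase decay; Dmax50 from Dmax-vs-concentration fit.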

[2] = target: T1, BRD3 (Homo sapiens, UniProt Q15059); assay: Live cell kinetic HiBiT degradation assay, HiBiT-BRD3 HEK293 cells; type: cell-based; settings: for DC50: HiBiT-BRD3 CRISPR knock-in HEK293 cells, live cell kinetic degradation, 24 h, read-out: Dmax 50 BRD3; for λmax BRD3 (degradation rate): HiBiT-BRD3 knock-in HEK293 cells
T1 construct: HiBiT, is appended to the N-terminus of endogenous BRD2, BRD3, and BRD4; endogenous in cells
T1 sequence (Q15059 whole entry): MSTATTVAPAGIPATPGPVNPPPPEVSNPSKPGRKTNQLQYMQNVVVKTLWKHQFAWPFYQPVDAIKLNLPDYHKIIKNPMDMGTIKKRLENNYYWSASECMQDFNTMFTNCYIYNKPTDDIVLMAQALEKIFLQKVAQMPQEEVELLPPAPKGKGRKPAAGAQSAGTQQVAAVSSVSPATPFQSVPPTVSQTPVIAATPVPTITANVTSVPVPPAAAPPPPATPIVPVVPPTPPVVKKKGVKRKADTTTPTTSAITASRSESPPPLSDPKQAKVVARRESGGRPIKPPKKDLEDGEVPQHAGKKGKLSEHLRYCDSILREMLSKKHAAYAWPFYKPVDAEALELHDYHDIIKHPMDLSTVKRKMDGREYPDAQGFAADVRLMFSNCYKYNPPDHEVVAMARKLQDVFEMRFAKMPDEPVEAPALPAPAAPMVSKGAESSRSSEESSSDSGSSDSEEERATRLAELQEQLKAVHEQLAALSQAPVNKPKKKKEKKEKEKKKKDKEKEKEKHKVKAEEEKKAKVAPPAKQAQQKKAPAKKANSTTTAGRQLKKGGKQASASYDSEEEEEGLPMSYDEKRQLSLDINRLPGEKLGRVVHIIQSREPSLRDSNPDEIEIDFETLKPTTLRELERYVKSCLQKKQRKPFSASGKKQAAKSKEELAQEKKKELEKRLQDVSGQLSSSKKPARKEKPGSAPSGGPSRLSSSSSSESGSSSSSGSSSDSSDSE
Procedure: HEK293 HiBiT-BRD2 (LgBiT stable), HEK293 HiBiT-BRD3 (LgBiT stable), and HEK293 HiBiT-BRD4 (LgBiT stable) were created using CRISPR/Cas9 to insert at HiBiT tag at the N-terminal genomic loci of BRD2, BRD3, or BRD4 in a cell line stably expressing LgBiT protein as described previously.[23]
For kinetic degradation experiments, HEK293 HiBiT-BRD2, 3, or 4 (LgBiT stable) cells and HEK293 HiBiT-BRD4 (LgBiT) CRBN KO and VHL KO cells were plated at 20,000 cells/well in DMEM +10% FBS in white 96-well tissue culture plates and allowed to adhere overnight. The next day, media was removed and 90 μL of prewarmed CO2-independent medium (Gibco) containing Endurazine (Promega) at a 1:100 dilution from stock was added. Plates were incubated at 37 °C for 3 h to allow luminescence to equilibrate. A threefold dilution series of each PROTAC at 10x the desired final concentration was prepared (with the amount of DMSO in each treatment condition kept constant). After luminescence equilibration, a preread luminescence measurement was taken (prior to compound addition) to allow for baseline normalization to account for possible plating differences. Cells were then treated with 10 μL of the prepared PROTAC dilution series (in triplicate or quadruplicate). Treated plates were placed in a GloMax Discover luminometer (Promega) prewarmed to 37 °C and luminescence measurements were obtained every 7 min for 24 h. Kinetic degradation plots were obtained by first normalizing time course luminescence readings in each well to the preread measurement, then to the average value of the DMSO only control at each time point. Data was analyzed using GraphPad Prism (version 8) and excel. Dmax values were identified as the lowest luminescence reading in each well. Rate constant values were calculated using a one phase exponential decay Y = (Y0-Plateau) e(K*^X) + Plateau using Prism (Y0 constrained to 1). Dmax 50 values were calculated by plotting Dmax as a function of concentration, then fitting plots using the following equation: [drawing 1] to determine IC50.

[3] = tested on: RKO WT cells; assay: cells; type: cell-based, human; settings: Homo sapiens, 316 pM to 10 μM
[4] = tested on: K562 cells; assay: Cell viability assay (CellTiter-Glo); type: cell-based, human; settings: Homo sapiens; WT K562, 5.12 pM to 10 uM, n = 3 (Table S4)
[5] = tested on: KBM7 cells; assay: Cell viability assay (CellTiter-Glo); type: cell-based, human; settings: Homo sapiens, KBM-7; WT KBM7, 5.12 pM to 10 uM, n = 3 (Table S4)
[6] = WT RKO, n = 3 (Table S4), read-out: EC50 RKO

Structure (SMILES) | EC50 [1] | λmax BRD4 (degradation rate) [1] | DC50 [2] | λmax BRD3 (degradation rate) [2] | EC50 [3, 6] | EC50 [4] | EC50 [5] | fold increase in degradation of BRD4 (Dmax 50) vs matched pair [1] | EC50 ([3]; 72 h, 3 days, n = 3 (Figures 5 and 8C, Table S5), read-out: EC50 RKO WT)
Cc1ncsc1-c1ccc(CNC(=O)[C@@H]2C[C@@H](O)CN2C(=O)[C@@H](NC(=O)COCC(C)(COCCOCCOCCOC(=O)C[C@@H]2N=C(c3ccc(Cl)cc3)c3c(sc(C)c3C)-n3c(C)nnc32)COCCOCCOCCN2CCN(c3cc4c(cc3F)C(=O)N(C3CCC(=O)NC3=O)C4=O)CC2)C(C)(C)C)cc1 (mixture of isomers) [AB3030 (32), (17S)-11-((2-(2-(2-(4-(2-(2,6-dioxopiperidin-3-yl)-6-fluoro-1,3-dioxoisoindolin-5-yl)piperazin-1-yl)ethoxy)ethoxy)ethoxy)methyl)-17-((2S,4R)-4-hydroxy-2-((4-(4-methylthiazol-5-yl)benzyl)carbamoyl)pyrrolidine-1-carbonyl)-11,18,18-trimethyl-15-oxo-3,6,9,13-tetraoxa-16-azanonadecyl 2-((S)-4-(4-chlorophenyl)-2,3,9-trimethyl-6H-thieno[3,2-f][1,2,4]triazolo[4,3-a][1,4]diazepin-6-yl)acetate] | 0.0074 µM | 2.19 h⁻¹ | 0.0017 µM | 2.97 h⁻¹ | 0.402 µM | 0.192 µM | 0.078 µM |  | 
Cc1ncsc1-c1ccc(CNC(=O)[C@@H]2C[C@@H](O)CN2C(=O)[C@@H](NC(=O)COCC(C)(COCCOCCOCCNc2cccc3c2C(=O)N(C2CCC(=O)NC2=O)C3=O)COCCOCCOCCOC(=O)C[C@@H]2N=C(c3ccc(Cl)cc3)c3c(sc(C)c3C)-n3c(C)nnc32)C(C)(C)C)cc1 (mixture of isomers) [AB3062 (23), (17S)-11-((2-(2-(2-((2-(2,6-dioxopiperidin-3-yl)-1,3-dioxoisoindolin-4-yl)amino)ethoxy)ethoxy)ethoxy)methyl)-17-((2S,4R)-4-hydroxy-2-((4-(4-methylthiazol-5-yl)benzyl)carbamoyl)pyrrolidine-1-carbonyl)-11,18,18-trimethyl-15-oxo-3,6,9,13-tetraoxa-16-azanonadecyl 2-((S)-4-(4-chlorophenyl)-2,3,9-trimethyl-6H-thieno[3,2-f][1,2,4]triazolo[4,3-a][1,4]diazepin-6-yl)acetate] | 0.011 µM | 1.40 h⁻¹ | 0.0057 µM | 2.06 h⁻¹ | 0.42 µM | 0.212 µM | 0.104 µM | 3.4 fold | 
Cc1ncsc1-c1ccc(CNC(=O)[C@@H]2C[C@@H](O)CN2C(=O)[C@@H](NC(=O)COCC(C)(COCCOCCOCCNc2cc3c(cc2F)C(=O)N(C2CCC(=O)NC2=O)C3=O)COCCOCCOCCOC(=O)C[C@@H]2N=C(c3ccc(Cl)cc3)c3c(sc(C)c3C)-n3c(C)nnc32)C(C)(C)C)cc1 (mixture of isomers) [AB3063 (26), (17S)-11-((2-(2-(2-((2-(2,6-dioxopiperidin-3-yl)-6-fluoro-1,3-dioxoisoindolin-5-yl)amino)ethoxy)ethoxy)ethoxy)methyl)-17-((2S,4R)-4-hydroxy-2-((4-(4-methylthiazol-5-yl)benzyl)carbamoyl)pyrrolidine-1-carbonyl)-11,18,18-trimethyl-15-oxo-3,6,9,13-tetraoxa-16-azanonadecyl 2-((S)-4-(4-chlorophenyl)-2,3,9-trimethyl-6H-thieno[3,2-f][1,2,4]triazolo[4,3-a][1,4]diazepin-6-yl)acetate] | 0.003 µM | 1.98 h⁻¹ | 0.0015 µM | 2.54 h⁻¹ | 0.165 µM | 0.0741 µM | 0.0212 µM | 3.7 fold | 0.26 µM
Cc1ncsc1-c1ccc(CNC(=O)[C@@H]2C[C@@H](O)CN2C(=O)[C@@H](NC(=O)COCC(C)(COCCOCCOCCNc2cccc3c2C(=O)N(C2CCC(=O)NC2=O)C3=O)COCCOCCOC(=O)C[C@@H]2N=C(c3ccc(Cl)cc3)c3c(sc(C)c3C)-n3c(C)nnc32)C(C)(C)C)cc1 (mixture of isomers) [AB3064 (25), (14S)-8-((2-(2-(2-((2-(2,6-dioxopiperidin-3-yl)-1,3-dioxoisoindolin-4-yl)amino)ethoxy)ethoxy)ethoxy)methyl)-14-((2S,4R)-4-hydroxy-2-((4-(4-methylthiazol-5-yl)benzyl)carbamoyl)pyrrolidine-1-carbonyl)-8,15,15-trimethyl-12-oxo-3,6,10-trioxa-13-azahexadecyl 2-((S)-4-(4-chlorophenyl)-2,3,9-trimethyl-6H-thieno[3,2-f][1,2,4]triazolo[4,3-a][1,4]diazepin-6-yl)acetate] | 0.031 µM | 1.09 h⁻¹ | 0.0081 µM | 1.69 h⁻¹ | 0.904 µM | 0.369 µM | 0.168 µM |  | 
Cc1ncsc1-c1ccc(CNC(=O)[C@@H]2C[C@@H](O)CN2C(=O)[C@@H](NC(=O)COCC(C)(COCCOCCOCCNc2cc3c(cc2F)C(=O)N(C2CCC(=O)NC2=O)C3=O)COCCOCCOC(=O)C[C@@H]2N=C(c3ccc(Cl)cc3)c3c(sc(C)c3C)-n3c(C)nnc32)C(C)(C)C)cc1 (mixture of isomers) [AB3065 (28), (14S)-8-((2-(2-(2-((2-(2,6-dioxopiperidin-3-yl)-6-fluoro-1,3-dioxoisoindolin-5-yl)amino)ethoxy)ethoxy)ethoxy)methyl)-14-((2S,4R)-4-hydroxy-2-((4-(4-methylthiazol-5-yl)benzyl)carbamoyl)pyrrolidine-1-carbonyl)-8,15,15-trimethyl-12-oxo-3,6,10-trioxa-13-azahexadecyl 2-((S)-4-(4-chlorophenyl)-2,3,9-trimethyl-6H-thieno[3,2-f][1,2,4]triazolo[4,3-a][1,4]diazepin-6-yl)acetate] | 0.0029 µM | 1.51 h⁻¹ | 0.0012 µM | 2.14 h⁻¹ | 0.214 µM | 0.11 µM | 0.0394 µM |  | 
Cc1ncsc1-c1ccc([C@H](C)NC(=O)[C@@H]2C[C@@H](O)CN2C(=O)[C@@H](NC(=O)COCC(C)(COCCOCCOCCNc2cccc3c2C(=O)N(C2CCC(=O)NC2=O)C3=O)COCCOCCOCCOC(=O)C[C@@H]2N=C(c3ccc(Cl)cc3)c3c(sc(C)c3C)-n3c(C)nnc32)C(C)(C)C)cc1 (mixture of isomers) [AB3066 (24), (17S)-11-((2-(2-(2-((2-(2,6-dioxopiperidin-3-yl)-1,3-dioxoisoindolin-4-yl)amino)ethoxy)ethoxy)ethoxy)methyl)-17-((2S,4R)-4-hydroxy-2-(((S)-1-(4-(4-methylthiazol-5-yl)phenyl)ethyl)carbamoyl)pyrrolidine-1-carbonyl)-11,18,18-trimethyl-15-oxo-3,6,9,13-tetraoxa-16-azanonadecyl 2-((S)-4-(4-chlorophenyl)-2,3,9-trimethyl-6H-thieno[3,2-f][1,2,4]triazolo[4,3-a][1,4]diazepin-6-yl)acetate] | 0.003 µM | 2.16 h⁻¹ |  | 2.66 h⁻¹ | 0.151 µM | 0.134 µM | 0.038 µM |  | 
